The source of these data is US20120178766A1, “FUROPYRIMIDINEDIONE DERIVATIVES AS TRPAI MODULATORS” (priority 2009, published 2012).

Experiment [1] addresses T1, human TRPA1 (Homo sapiens, UniProt O75762).
T1 construct: expressed in transfected cells; host or cells: CHO cells (G-418 selection)
Description: 45Calcium uptake assay: inhibition of AITC induced cellular uptake of radioactive calcium, human TRPA1 expressing CHO cells. The settings on record: numeric values, AITC 30 μM. The experiment is classed as cell-based. In short, it runs like this:
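CHO cells expressing TRPA1 were preincubated 10 min with compound (0.5% DMSO final), then given AITC (30 μM human, 10 μM rat) plus 5 μCi/ml 45Ca2+ for 3 min. Lysate radioactivity measured by scintillation; IC50 obtained by nonlinear regression of % maximal response without antagonist.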

The target in experiment [2] is T2, rat TRPA1 (Rattus norvegicus, UniProt Q6RI86).
T2 construct: expressed in transfected cells; host or cells: CHO cells (Zeocin selection)
T2 sequence (Q6RI86 whole entry): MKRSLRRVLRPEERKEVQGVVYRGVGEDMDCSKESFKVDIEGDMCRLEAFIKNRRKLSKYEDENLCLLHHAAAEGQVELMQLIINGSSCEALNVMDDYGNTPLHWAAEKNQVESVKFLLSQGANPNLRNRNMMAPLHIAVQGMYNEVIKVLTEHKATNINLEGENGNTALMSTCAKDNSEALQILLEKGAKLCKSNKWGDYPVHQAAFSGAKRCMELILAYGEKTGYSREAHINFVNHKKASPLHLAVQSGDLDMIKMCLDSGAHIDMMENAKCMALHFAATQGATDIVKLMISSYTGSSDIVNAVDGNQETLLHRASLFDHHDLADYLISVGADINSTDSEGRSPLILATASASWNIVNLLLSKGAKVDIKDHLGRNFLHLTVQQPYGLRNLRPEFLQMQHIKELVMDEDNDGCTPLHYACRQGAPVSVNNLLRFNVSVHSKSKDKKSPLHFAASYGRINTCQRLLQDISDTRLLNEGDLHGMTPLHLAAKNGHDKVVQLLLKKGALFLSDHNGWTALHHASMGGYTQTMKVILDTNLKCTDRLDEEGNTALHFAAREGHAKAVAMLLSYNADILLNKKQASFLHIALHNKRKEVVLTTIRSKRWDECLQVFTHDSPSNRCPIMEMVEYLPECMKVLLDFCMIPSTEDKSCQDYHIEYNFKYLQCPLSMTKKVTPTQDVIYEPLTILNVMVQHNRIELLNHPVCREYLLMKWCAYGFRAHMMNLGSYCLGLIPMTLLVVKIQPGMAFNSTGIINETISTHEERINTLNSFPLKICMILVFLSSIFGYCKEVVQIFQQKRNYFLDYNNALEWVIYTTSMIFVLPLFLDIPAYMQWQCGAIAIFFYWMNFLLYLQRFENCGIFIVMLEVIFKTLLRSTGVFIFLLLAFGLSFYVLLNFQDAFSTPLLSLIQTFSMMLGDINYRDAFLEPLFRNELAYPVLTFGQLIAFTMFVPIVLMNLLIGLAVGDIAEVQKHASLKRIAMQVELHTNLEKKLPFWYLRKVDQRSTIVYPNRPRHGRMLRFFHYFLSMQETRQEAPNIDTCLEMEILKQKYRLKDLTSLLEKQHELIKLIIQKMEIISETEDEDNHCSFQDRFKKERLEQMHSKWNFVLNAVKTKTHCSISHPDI
Description: 45Calcium uptake assay: inhibition of AITC induced cellular uptake of radioactive calcium, rat TRPA1 expressing CHO cells. The settings on record: AITC 10 μM; for inhibition at 10 µM: 10.0 μM compound, read-out: rat TRPA1 Percentage inhibition at 10.0 μM; for inhibition at 1 µM: read-out: rat TRPA1 Percentage inhibition; for IC50: class symbols. The experiment is classed as cell-based. In short, it runs like this:
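CHO cells expressing rat or human TRPA1 were pre-treated with compound for 10 min, then given AITC (30 μM human, 10 μM rat) plus 5 μCi/ml 45Ca2+ for 3 min; final DMSO 0.5%. Lysate radioactivity was counted by scintillation. IC50 came from nonlinear regression of concentration-response curves as % of maximal response.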

T1 sequence (O75762 whole entry): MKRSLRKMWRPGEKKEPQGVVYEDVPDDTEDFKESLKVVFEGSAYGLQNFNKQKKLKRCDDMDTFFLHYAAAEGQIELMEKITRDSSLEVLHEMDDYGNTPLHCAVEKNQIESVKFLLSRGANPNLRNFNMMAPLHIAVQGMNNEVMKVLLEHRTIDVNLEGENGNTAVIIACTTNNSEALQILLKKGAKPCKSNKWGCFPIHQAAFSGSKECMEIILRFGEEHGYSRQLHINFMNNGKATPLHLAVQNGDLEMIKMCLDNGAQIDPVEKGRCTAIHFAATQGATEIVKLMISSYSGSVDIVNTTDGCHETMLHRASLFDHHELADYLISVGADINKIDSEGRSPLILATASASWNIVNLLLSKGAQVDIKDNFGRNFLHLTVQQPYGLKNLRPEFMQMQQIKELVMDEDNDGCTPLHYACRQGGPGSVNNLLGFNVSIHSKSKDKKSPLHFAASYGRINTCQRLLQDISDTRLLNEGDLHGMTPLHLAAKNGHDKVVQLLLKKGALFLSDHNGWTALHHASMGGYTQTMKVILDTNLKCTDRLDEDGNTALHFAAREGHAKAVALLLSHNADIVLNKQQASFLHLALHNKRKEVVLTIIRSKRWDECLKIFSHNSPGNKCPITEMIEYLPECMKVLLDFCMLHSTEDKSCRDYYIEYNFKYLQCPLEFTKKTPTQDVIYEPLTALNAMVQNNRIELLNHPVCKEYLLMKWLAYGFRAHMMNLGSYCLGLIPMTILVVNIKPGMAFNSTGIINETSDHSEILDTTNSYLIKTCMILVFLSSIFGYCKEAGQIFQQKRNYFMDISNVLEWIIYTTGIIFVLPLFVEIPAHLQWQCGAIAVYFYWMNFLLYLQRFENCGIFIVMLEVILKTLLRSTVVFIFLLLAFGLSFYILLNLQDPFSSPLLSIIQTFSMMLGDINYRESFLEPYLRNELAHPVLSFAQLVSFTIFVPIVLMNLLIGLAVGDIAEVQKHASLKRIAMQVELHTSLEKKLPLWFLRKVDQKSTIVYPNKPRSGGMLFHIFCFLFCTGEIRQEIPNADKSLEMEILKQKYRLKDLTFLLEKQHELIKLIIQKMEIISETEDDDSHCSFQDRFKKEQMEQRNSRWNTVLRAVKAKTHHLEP

What is called IC50 is the concentration at which inhibition is half-maximal. One may read the inhibition as the drop in the measured response relative to a control, in per cent. For the compound `Cc1oc2c(c1CC(=O)Nc1nc(-c3cc(Cl)c(OCC(C)C)c(Cl)c3)cs1)c(=O)n(C)c(=O)n2C` [Example 82, N1-[4-(3,5-Dichloro-4-isobutoxyphenyl)-1,3-thiazol-2-yl]-2-(1,3,6-trimethyl-2,4-dioxo-1,2,3,4-tetrahydrofuro[2,3-d]pyrimidin-5-yl)acetamide], the IC50 in experiment [1] came out at 3.34 nM. In addition, in experiment [2], the inhibition at 10 µM amounted to 100%, the inhibition at 1 µM was 100% and the IC50 was less than 50 nM.

For `Cc1oc2c(c1CC(=O)Nc1nc(-c3ccc(F)c(C(F)(F)F)c3F)cs1)c(=O)n(C)c(=O)n2C` [Example 83, N1-{4-[2,4-Difluoro-3-(trifluoromethyl)phenyl]-1,3-thiazol-2-yl}-2-(1,3,6-trimethyl-2,4-dioxo-1,2,3,4-tetrahydrofuro[2,3-d]pyrimidin-5-yl)acetamide], the IC50 in experiment [1] is 4.52 nM; in experiment [2], less than 50 nM.

For the compound `Cc1oc2c(c1CC(=O)Nc1nc(-c3cc(F)c(C(F)(F)F)c(F)c3)cs1)c(=O)n(C)c(=O)n2C` [Example 84, N1-{4-[3,5-Difluoro-4-(trifluoromethyl)phenyl]-1,3-thiazol-2-yl}-2-(1,3,6-trimethyl-2,4-dioxo-1,2,3,4-tetrahydrofuro[2,3-d]pyrimidin-5-yl)acetamide], the half-maximal inhibitory concentration (IC50) in experiment [1] was 4.16 nM; in experiment [2], less than 50 nM.

Take `Cc1oc2c(c1CC(=O)Nc1nc(-c3cc(F)c(OC(F)F)c(F)c3)cs1)c(=O)n(C)c(=O)n2C` [Example 85, N1-{4-[3,5-Difluoro-4-(difluoromethoxy)phenyl]-1,3-thiazol-2-yl}-2-(1,3,6-trimethyl-2,4-dioxo-1,2,3,4-tetrahydrofuro[2,3-d]pyrimidin-5-yl)acetamide]: the IC50 in experiment [1] came out at 6.57 nM. In experiment [2], the inhibition at 10 µM was 100% and the inhibition at 1 µM was found to be 100%.

For the compound `Cc1oc2c(c1CC(=O)Nc1nc(-c3cc(Cl)c(OC(F)F)c(Cl)c3)cs1)c(=O)n(C)c(=O)n2C` [Example 86, N1-{4-[3,5-Dichloro-4-(difluoromethoxy)phenyl]-1,3-thiazol-2-yl}-2-(1,3,6-trimethyl-2,4-dioxo-1,2,3,4-tetrahydrofuro[2,3-d]pyrimidin-5-yl)acetamide], in experiment [1], the concentration for half-maximal inhibition (IC50) came out at 4.11 nM. For the same compound, in experiment [2], the inhibition at 10 µM is 95.4%, the inhibition at 1 µM was 99.1% and the IC50 is less than 50 nM.

As to `Cc1oc2c(c1CC(=O)Nc1nc(-c3cc(F)c(OCC(F)(F)F)c(F)c3)cs1)c(=O)n(C)c(=O)n2C` [Example 87, N1-{4-[3,5-Difluoro-4-(2,2,2-trifluoroethoxy)phenyl]-1,3-thiazol-2-yl}-2-(1,3,6-trimethyl-2,4-dioxo-1,2,3,4-tetrahydrofuro[2,3-d]pyrimidin-5-yl)acetamide], the figures for the IC50 in experiment [1] and in experiment [2] were 1.68 nM and less than 50 nM, respectively.

With `Cc1oc2c(c1CC(=O)Nc1nc(-c3cc(Cl)c(OCC(F)(F)F)c(Cl)c3)cs1)c(=O)n(C)c(=O)n2C` [Example 88, N1-{4-[3,5-Dichloro-4-(2,2,2-trifluoroethoxy)phenyl]-1,3-thiazol-2-yl}-2-(1,3,6-trimethyl-2,4-dioxo-1,2,3,4-tetrahydrofuro[2,3-d]pyrimidin-5-yl)acetamide], the IC50 in experiment [1] is 1.77 nM. In experiment [2], the inhibition at 10 µM amounted to 100% and the inhibition at 1 µM came out at 98.3%.

On to `Cc1oc2c(c1CC(=O)Nc1nc(-c3cc(F)c(OCC4CC4)c(F)c3)cs1)c(=O)n(C)c(=O)n2C` [Example 89, N1-{4-[4-(Cyclopropylmethoxy)-3,5-difluorophenyl]-1,3-thiazol-2-yl]-2-(1,3,6-trimethyl-2,4-dioxo-1,2,3,4-tetrahydrofuro[2,3-d]pyrimidin-5-yl)acetamide], for which the IC50 was 9.72 nM in experiment [1] and 50 to 100 nM in experiment [2]. Also, the inhibition at 10 µM in experiment [2] amounted to 98.8%.

Take `Cc1oc2c(c1CC(=O)Nc1nc(-c3ccc(F)c(C(F)(F)F)c3)c(C)s1)c(=O)n(C)c(=O)n2C` [Example 90, N1-{4-[4-Fluoro-3-(trifluoromethyl)phenyl]-5-methyl-1,3-thiazol-2-yl}-2-(1,3,6-trimethyl-2,4-dioxo-1,2,3,4-tetrahydrofuro[2,3-d]pyrimidin-5-yl)acetamide]: the IC50 in experiment [1] is 14.2 nM. In experiment [2], the inhibition at 10 µM came to 99.5% and the inhibition at 1 µM worked out at 98%.
